Assay results taken from patent US12280068B1 (ZYLORION HEALTH INC., priority 2023, dated 2025).

Tests used:
[1] = biological target: T1, human 5HT2A (Homo sapiens, UniProt P28223); assay: AequoScreen Ca2+ release assay in CHO-K1 cells; type: cell-based; settings: for 5-HT2A-dependent Ca^2+ release Efficacy (% ± S.E.M.): CHO-K1 cells expressing h5HT2A
T1 construct: expressed in transfected cells
Procedure: Cell Culture—AequoScreen™ Chinese hamster ovary (CHO)-K1 cells stably expressing human 5HT2A or 5HT2B (h5HT2A, h5HT2B) were maintained at 37° C., 5% CO2 in F-12 DMEM containing 1 mM L-glutamine, 10% FBS, and 1% Pen/Strep.
Ca^2+ Assay—Release of Ca^2+ into the cellular cytosol upon GPCR-dependent activation of Gaq/11 was determined using the AequoScreen™ assay in CHO-K1 cells stably expressing h5HT2A or h5HT2B. […] Upon binding Ca^2+, apoaequorin becomes activated to aequorin and converts coelenterazine to coelenteramide, CO2, and light. Light production is therefore directly proportional to the release of Ca^2+ from intracellular stores upon GPCR activation. Cells were seeded into flat bottom, white bottom, white wall, poly-D-lysine coated 96-well plates (20,000 cells/well) and incubated overnight in Opti-MEM containing 1% FBS at 37° C. and 5% CO2. Following this, Opti-MEM media was removed and replaced with fresh Opti-MEM containing 5 μM coelenterazine h (Promega, Madison, WI) and 1% FBS (final volume 50 μL) and cells were incubated at 25° C. for 4 h. After these 4 h, cells were treated with 50 μL 2× concentrated ligand solutions to achieve the concentrations indicated and centrifuged at 1,000×g for 1 min at room temperature. Chemiluminescence was then immediately measured on a Cytation5 plate reader (top read, gain 200, integration time 10,000 msec).

[2] = biological target: T2, h5HT2A (Homo sapiens, UniProt P28223); assay: NanoBit βarrestin2 recruitment assay in CHO-K1 cells; type: cell-based
T2 construct: expressed in transfected cells; host or cells: CHO-K1 cells, transient transfection with Lipofectamine 3000
T2 sequence (P28223 whole entry): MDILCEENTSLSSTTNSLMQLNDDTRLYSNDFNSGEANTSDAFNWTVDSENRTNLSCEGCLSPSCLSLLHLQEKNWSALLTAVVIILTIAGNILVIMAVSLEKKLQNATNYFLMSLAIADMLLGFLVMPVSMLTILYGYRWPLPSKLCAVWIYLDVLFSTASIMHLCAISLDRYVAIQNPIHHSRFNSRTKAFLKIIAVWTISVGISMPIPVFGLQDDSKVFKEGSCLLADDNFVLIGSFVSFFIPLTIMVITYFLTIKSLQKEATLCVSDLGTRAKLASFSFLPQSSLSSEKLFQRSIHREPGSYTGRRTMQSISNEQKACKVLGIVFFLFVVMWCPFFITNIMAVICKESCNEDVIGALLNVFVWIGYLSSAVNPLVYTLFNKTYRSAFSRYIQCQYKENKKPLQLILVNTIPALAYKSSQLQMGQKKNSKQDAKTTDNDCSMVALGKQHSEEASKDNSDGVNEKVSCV
T2 sequence (P32121 whole entry, further chain): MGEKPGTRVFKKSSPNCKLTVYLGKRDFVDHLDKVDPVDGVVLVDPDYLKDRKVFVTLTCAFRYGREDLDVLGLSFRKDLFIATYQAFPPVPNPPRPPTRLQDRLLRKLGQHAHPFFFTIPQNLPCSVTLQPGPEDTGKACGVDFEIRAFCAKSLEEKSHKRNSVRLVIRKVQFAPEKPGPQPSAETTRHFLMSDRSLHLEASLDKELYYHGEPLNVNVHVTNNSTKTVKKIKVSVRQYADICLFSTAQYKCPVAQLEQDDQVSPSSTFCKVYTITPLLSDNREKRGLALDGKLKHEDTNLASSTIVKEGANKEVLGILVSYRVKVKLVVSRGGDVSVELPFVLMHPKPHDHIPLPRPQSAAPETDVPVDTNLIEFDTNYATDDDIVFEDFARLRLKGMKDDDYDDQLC
Source text: Cell Culture—CHO-K1 cells were transfected with either NanoBit™ smBIT h5HT2A plasmids and lgBiT βarrestin2 plasmid. When h5HT2A and βarrestin2 come into contact with one another the smBiT and lgBiT peptides complement each other to produce a complete NanoBit™ luciferase enzyme. When complete, the enzyme is able to catalyze the breakdown of the molecule coelenterazine to produce light. Emitted light levels are proportional to interactions between receptor and βarrestin2. Cells were maintained at 37° C., 5% CO2 in F-12 DMEM containing 1 mM L-glutamine, 10% FBS, and 1% Pen/Strep. For transfections, CHO-K1 cells were seeded in 6-well plates (500,000 cells per well) and incubated overnight in standard media as described above. Following overnight incubation, the cells were transfected with 1 μg of both the h5HT2A and the βarr2 NanoBiT plasmids. Transfections were carried out using Lipofectamine 3000 (Fisher Scientific, Ottawa, ON), according to the manufacturer's protocol in Opti-MEM media containing 1% FBS.
βarrestin2 assay—After seeding at 20,000 cells/well in flat bottom, white bottom, white wall, poly-D-lysine coated 96-well plates, transfected CHO-K1 cells were rinsed twice with Hank's buffered salt solution (HBSS), and 100 μL of HBSS was added to each of the wells. To this, 25 μL of Nano-Glo Live Cell Substrate was added (diluted 1/20 in the Nano-Glo LCS Dilution buffer, according to the manufacturer's protocol), and the plate was transferred to a Cytation5 plate reader. […] AUC data were then used for subsequent analyses.

[3] = CHO-K1 cells, AUC of first 30 min

T1 sequence (P28223 whole entry): as the sequence (P28223 whole entry) above

Row | SMILES | 5-HT2A-dependent Ca^2+ release Efficacy (% ± S.E.M.) [1] | 5-HT2A-dependent βarrestin2 recruitment Efficacy (% ± S.E.M.) [2, 3] | 5-HT2A-dependent βarrestin2 recruitment Potency (nM) [2, 3] | 5-HT2A Ca^2+ release activity (in words) [1] | 5-HT2A βarrestin2 recruitment activity (in words) [2]
1 | CN(C)CCc1c[nH]c2cccc(OP(=O)(O)O)c12 [Psilocybin] | 69 ± 15% | 3.7 ± 22% | not converged |  | 
2 | CCN(CC)C(=O)[C@@H]1C=C2c3cccc4[nH]cc(c34)C[C@H]2N(C)C1 [LSD, lysergic acid diethylamide] | 82 ± 4.7% | 83 ± 4.7% |  |  | 
3 | CN(C)CCc1c[nH]c2cccc(O)c12 [Psilocin] | 69 ± 12% | 45 ± 15% |  | high potency | intermediate potency
4 | NCCc1c[nH]c2ccc(O)cc12 [Serotonin (5HT), 5-hydroxytryptamine] |  | 37 ± 16% |  |  | 
